Assays:
blackgrass = assay: Test B postemergence herbicide test; type: in vivo, Alopecurus myosuroides; settings: postemergence
Procedure, shortened: (§1)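 Plants grow to 1- to 4-leaf stage (2–18 cm) for postemergence spraying, or to 2-leaf stage for the paddy test. Formulated compound is applied. Greenhouse holding lasts 13–15 days. Response is scored visually relative to controls, 0 no effect to 100 complete control; a dash means no result.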

rice [1] = assay: Test B pre-/postemergence herbicide test; type: in vivo, Oryza sativa; settings: preemergence
Procedure, shortened: (§2)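 Herbicidal effect was judged by eye on a 0–100 scale after plants stood 13 to 15 days in the greenhouse following pre- or postemergence treatment with surfactant-containing formulations.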

[2] = test system: small flower umbrella sedge; assay: Test B flooded paddy test; type: in vivo, Cyperus difformis; settings: 1000 g ai/ha, scale 0 to 100 (0 no effect, 100 complete control)
Procedure, shortened: as §1

ducksalad = assay: Test B flooded paddy test; type: in vivo, Heteranthera limosa; settings: 1000 g ai/ha, scale 0 to 100 (0 no effect, 100 complete control)
Procedure, shortened: as §1

pigweed = assay: Test B pre-/postemergence herbicide test; type: in vivo, Amaranthus retroflexus; settings: for Pigweed plant response rating: postemergence
Procedure, shortened: as §2

barnyardgrass [3] = assay: Test B flooded paddy test; type: in vivo, Echinochloa crus-galli; settings: 1000 g ai/ha, scale 0 to 100 (0 no effect, 100 complete control)
Procedure, shortened: as §1

giant foxtail [4] = assay: Test A pre-/postemergence herbicide test; type: in vivo, Setaria faberi
Procedure, shortened: (§3)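 Plants are held in greenhouse about ten days after treatment, then compared with untreated controls and scored 0 (no effect) to 100 (complete control). Preemergence dosing is a directed soil spray on sown sandy loam; postemergence dosing is spray to runoff at 2–10 cm height.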

rice [5] = assay: Test B flooded paddy test; type: in vivo, Oryza sativa; settings: 1000 g ai/ha, scale 0 to 100 (0 no effect, 100 complete control)
Procedure, shortened: (§4)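 Treated at 2-leaf (paddy) or 1–4-leaf, 2–18 cm (postemergence); greenhouse 13–15 d; visual score vs control, 0 none to 100 complete control; dash = not tested.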

velvetleaf [6] = assay: Test B pre-/postemergence herbicide test; type: in vivo, Abutilon theophrasti; settings: for Velvetleaf plant response rating: postemergence
Procedure, shortened: as §2

wheat = assay: Test B postemergence herbicide test; type: in vivo, Triticum aestivum; set-up: key to Wheat plant response rating: 0 = no effect, 100 = complete control; settings: postemergence
Procedure, shortened: as §4

corn = assay: Test B pre-/postemergence herbicide test; type: in vivo, Zea mays; settings: for Corn plant response rating: postemergence
Procedure, shortened: as §2

wild oat = assay: Test B postemergence herbicide test; type: in vivo, Avena fatua; settings: postemergence
Procedure, shortened: as §4

velvetleaf [7] = assay: Test A pre-/postemergence herbicide test; type: in vivo, Abutilon theophrasti
Procedure, shortened: as §3

morningglory [8] = assay: Test B pre-/postemergence herbicide test; type: in vivo, Ipomoea coccinea; settings: for Morningglory plant response rating: postemergence
Procedure, shortened: (§5)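 Species tested were Echinochloa crus-galli, Ipomoea coccinea, Xanthium strumarium and Oryza sativa, treated both before emergence and at the 1- to 4-leaf stage; rice and barnyardgrass were also tested under flooding at 2 leaves. Greenhouse incubation lasted 13–15 days before visual 0–100 scoring.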

morningglory [9] = assay: Test A pre-/postemergence herbicide test; type: in vivo, Ipomoea spp.
Procedure, shortened: as §3

giant foxtail [10] = assay: Test B pre-/postemergence herbicide test; type: in vivo, Setaria faberi; settings: for Foxtail, Giant plant response rating: postemergence
Procedure, shortened: as §2

cocklebur = assay: Test B pre-/postemergence herbicide test; type: in vivo, Xanthium strumarium; settings: for Cocklebur plant response rating: postemergence
Procedure, shortened: as §5

large crabgrass [11] = assay: Test A pre-/postemergence herbicide test; type: in vivo, Digitaria sanguinalis
Procedure, shortened: as §3

Surinam grass = assay: Test B pre-/postemergence herbicide test; type: in vivo, Urochloa decumbens; settings: for Surinam Grass plant response rating: postemergence
Procedure, shortened: as §2

lambsquarters = assay: Test B pre-/postemergence herbicide test; type: in vivo, Chenopodium album; settings: for Lambsquarters plant response rating: postemergence
Procedure, shortened: as §2

barnyardgrass [12] = assay: Test B pre-/postemergence herbicide test; type: in vivo, Echinochloa crus-galli; settings: for Barnyardgrass plant response rating: postemergence
Procedure, shortened: as §5

barnyardgrass [13] = assay: Test A pre-/postemergence herbicide test; type: in vivo, Echinochloa crus-galli
Procedure, shortened: as §3

redroot pigweed = assay: Test A pre-/postemergence herbicide test; type: in vivo, Amaranthus retroflexus
Procedure, shortened: as §3

large crabgrass [14] = assay: Test B pre-/postemergence herbicide test; type: in vivo, Digitaria sanguinalis; settings: for Crabgrass, Large plant response rating: postemergence
Procedure, shortened: as §2

[15] = 125 g ai/ha, visual rating, scale 0 (no effect) to 100 (complete control)
[16] = 500 g ai/ha, scale 0 to 100, 0 is no effect, 100 is complete control
[17] = 125 g ai/ha, 0 is no effect, 100 is complete control, preemergence
[18] = 500 g ai/ha, visual rating, 0 = no effect, 100 = complete control, preemergence
[19] = Postemergence, 500 g ai/ha, 0 to 100 scale, 0 no effect, 100 complete control
[20] = Postemergence, 2000 g ai/ha, 0 to 100 scale, 0 no effect, 100 complete control
[21] = Preemergence, 2000 g ai/ha, visual rating, 0 to 100 scale (0 no effect, 100 complete control)
[22] = preemergence, 500 g ai/ha, visual injury, 0 to 100 scale (0 no effect, 100 complete control)

C#CCNC(=O)c1cccc(NC(=O)c2cc(C(C)(C)C)nn2C)n1 [Compound 316]
Blackgrass plant response rating (blackgrass; [15]): 0 | Blackgrass plant response rating (blackgrass; [16]): 0 | Plant response rating (0 to 100 scale), Rice (rice [1]; 125 g ai/ha, 0 is no effect, 100 is complete control): 0 | Plant response rating, Rice (rice [1]; 500 g ai/ha, visual rating, 0 = no effect, 100 = complete control): 0 | Sedge, Umbrella plant response rating [2]: 0 | Ducksalad plant response rating (ducksalad): 0 | Plant response rating (0 to 100 scale), Pigweed (pigweed; [17]): 0 | Pigweed plant response rating (pigweed; [15]): 10 | Plant response rating, Pigweed (pigweed; [18]): 90 | Pigweed plant response rating (pigweed; [16]): 50 | Barnyardgrass plant response rating (barnyardgrass [3]): 0 | Foxtail, Giant plant response rating (giant foxtail [4]; [19]): 20 | Plant response rating, Foxtail, Giant (giant foxtail [4]; [20]): 30 | Foxtail, Giant plant response rating (giant foxtail [4]; [21]): 0 | Foxtail, Giant plant response rating (giant foxtail [4]; [22]): 0 | Rice plant response rating (rice [5]): 0 | Plant response rating (0 to 100 scale), Velvetleaf (velvetleaf [6]; [17]): 0 | Velvetleaf plant response rating (velvetleaf [6]; [15]): 0 | Plant response rating, Velvetleaf (velvetleaf [6]; [18]): 20 | Velvetleaf plant response rating (velvetleaf [6]; [16]): 40 | Wheat plant response rating (wheat; [15]): 0 | Wheat plant response rating (wheat; [16]): 0 | Plant response rating (0 to 100 scale), Corn (corn; [17]): 0 | Corn plant response rating (corn; [15]): 10 | Plant response rating, Corn (corn; [18]): 0 | Corn plant response rating (corn; [16]): 20 | Oat, Wild plant response rating (wild oat; [15]): 0 | Oat, Wild plant response rating (wild oat; [16]): 20 | Velvetleaf plant response rating (velvetleaf [7]; [19]): 15 | Plant response rating, Velvetleaf (velvetleaf [7]; [20]): 20 | Velvetleaf plant response rating (velvetleaf [7]; [21]): 15 | Velvetleaf plant response rating (velvetleaf [7]; [22]): 5 | Plant response rating (0 to 100 scale), Morningglory (morningglory [8]; [17]): 0 | Morningglory plant response rating (morningglory [8]; [15]): 10 | Plant response rating, Morningglory (morningglory [8]; [18]): 0 | Morningglory plant response rating (morningglory [8]; [16]): 10 | Morningglory plant response rating (morningglory [9]; [19]): 20 | Plant response rating, Morningglory (morningglory [9]; [20]): 30 | Morningglory plant response rating (morningglory [9]; [21]): 0 | Morningglory plant response rating (morningglory [9]; [22]): 0 | Plant response rating (0 to 100 scale), Foxtail, Giant (giant foxtail [10]; [17]): 0 | Foxtail, Giant plant response rating (giant foxtail [10]; [15]): 0 | Plant response rating, Foxtail, Giant (giant foxtail [10]; [18]): 0 | Foxtail, Giant plant response rating (giant foxtail [10]; [16]): 20 | Plant response rating (0 to 100 scale), Cocklebur (cocklebur; [17]): 0 | Cocklebur plant response rating (cocklebur; [15]): 0 | Plant response rating, Cocklebur (cocklebur; [18]): 0 | Cocklebur plant response rating (cocklebur; [16]): 20 | Crabgrass, Large plant response rating (large crabgrass [11]; [19]): 25 | Plant response rating, Crabgrass, Large (large crabgrass [11]; [20]): 45 | Crabgrass, Large plant response rating (large crabgrass [11]; [21]): 35 | Crabgrass, Large plant response rating (large crabgrass [11]; [22]): 10 | Plant response rating (0 to 100 scale), Surinam Grass (Surinam grass; [17]): 0 | Surinam Grass plant response rating (Surinam grass; [15]): 10 | Plant response rating, Surinam Grass (Surinam grass; [18]): 0 | Surinam Grass plant response rating (Surinam grass; [16]): 10 | Plant response rating (0 to 100 scale), Lambsquarters (lambsquarters; [17]): 0 | Lambsquarters plant response rating (lambsquarters; [15]): 40 | Plant response rating, Lambsquarters (lambsquarters; [18]): 60 | Lambsquarters plant response rating (lambsquarters; [16]): 70 | Plant response rating (0 to 100 scale), Barnyardgrass (barnyardgrass [12]; [17]): 0 | Barnyardgrass plant response rating (barnyardgrass [12]; [15]): 0 | Plant response rating, Barnyardgrass (barnyardgrass [12]; [18]): 0 | Barnyardgrass plant response rating (barnyardgrass [12]; [16]): 40 | Barnyardgrass plant response rating (barnyardgrass [13]; [19]): 20 | Plant response rating, Barnyardgrass (barnyardgrass [13]; [20]): 45 | Barnyardgrass plant response rating (barnyardgrass [13]; [21]): 10 | Barnyardgrass plant response rating (barnyardgrass [13]; [22]): 0 | Pigweed plant response rating (redroot pigweed; [19]): 25 | Plant response rating, Pigweed (redroot pigweed; [20]): 80 | Pigweed plant response rating (redroot pigweed; [21]): 65 | Pigweed plant response rating (redroot pigweed; [22]): 0 | Plant response rating (0 to 100 scale), Crabgrass, Large (large crabgrass [14]; [17]): 0 | Crabgrass, Large plant response rating (large crabgrass [14]; [15]): 10 | Plant response rating, Crabgrass, Large (large crabgrass [14]; [18]): 20 | Crabgrass, Large plant response rating (large crabgrass [14]; [16]): 10
